Earlier results as cited in US9044505B2, “Multimeric biotinidase resistant multimodality probes” (priority 2012, dated 2015).

System: (strept)avidin
Conditions: (strept)avidin-biotin interaction

Q: For `O=C(O)CCCC[C@@H]1SC[C@@H]2NC(=O)N[C@@H]21` [biotin], which Ka is on record?
A: 10^15 M
